The source of these data is patent US20240174727A1, “LONG-ACTING NATRIURETIC PEPTIDES AND USES THEREOF” (Eli Lilly and Company, priority 2022, published 2024).

Read-outs that look alike come from different tables or passages of the source. Numbered stars: 1 amine (or outer) side, 2 acyl side, 3 side chain; on linkers, the order of the positions; unused ones are H or OH. Bridge positions count the residues as written; N and C are the ends. Square brackets hold non-standard residues; d marks the D form. Peptide text beside a SMILES is read from it. * marks the point of attachment. PEG24 = NCCOCCOCCOCCOCCOCCOCCOCCOCCOCCOCCOCCOCCOCCOCCOCCOCCOCCOCCOCCOCCOCCOCCOCCOCCC(=O)O; C20 diacid = O=C(O)CCCCCCCCCCCCCCCCCCC(=O)*; γGlu = O=C(O)[C@H](CCC(=O)[*:2])N[*:1]; 4Pal = N[C@@H](Cc1ccncc1)C(=O)O; Dap = NC[C@H](N)C(=O)O; CH2 = C([*:1])[*:2]; βAla = NCCC(=O)O

In this experiment the target is T1, human NPRA (Homo sapiens, UniProt P16066).
T1 construct: Full-Length cDNA Cloning and Generation of Cell Lines Overexpressing Natriuretic Peptide Receptors (NPRs); expressed in transfected cells; host or cells: Jump-in T-Rex HEK293 cells, pJTI R4 CMV-TO MCS pA vector, tetracycline induction
T1 sequence (P16066 33-1061): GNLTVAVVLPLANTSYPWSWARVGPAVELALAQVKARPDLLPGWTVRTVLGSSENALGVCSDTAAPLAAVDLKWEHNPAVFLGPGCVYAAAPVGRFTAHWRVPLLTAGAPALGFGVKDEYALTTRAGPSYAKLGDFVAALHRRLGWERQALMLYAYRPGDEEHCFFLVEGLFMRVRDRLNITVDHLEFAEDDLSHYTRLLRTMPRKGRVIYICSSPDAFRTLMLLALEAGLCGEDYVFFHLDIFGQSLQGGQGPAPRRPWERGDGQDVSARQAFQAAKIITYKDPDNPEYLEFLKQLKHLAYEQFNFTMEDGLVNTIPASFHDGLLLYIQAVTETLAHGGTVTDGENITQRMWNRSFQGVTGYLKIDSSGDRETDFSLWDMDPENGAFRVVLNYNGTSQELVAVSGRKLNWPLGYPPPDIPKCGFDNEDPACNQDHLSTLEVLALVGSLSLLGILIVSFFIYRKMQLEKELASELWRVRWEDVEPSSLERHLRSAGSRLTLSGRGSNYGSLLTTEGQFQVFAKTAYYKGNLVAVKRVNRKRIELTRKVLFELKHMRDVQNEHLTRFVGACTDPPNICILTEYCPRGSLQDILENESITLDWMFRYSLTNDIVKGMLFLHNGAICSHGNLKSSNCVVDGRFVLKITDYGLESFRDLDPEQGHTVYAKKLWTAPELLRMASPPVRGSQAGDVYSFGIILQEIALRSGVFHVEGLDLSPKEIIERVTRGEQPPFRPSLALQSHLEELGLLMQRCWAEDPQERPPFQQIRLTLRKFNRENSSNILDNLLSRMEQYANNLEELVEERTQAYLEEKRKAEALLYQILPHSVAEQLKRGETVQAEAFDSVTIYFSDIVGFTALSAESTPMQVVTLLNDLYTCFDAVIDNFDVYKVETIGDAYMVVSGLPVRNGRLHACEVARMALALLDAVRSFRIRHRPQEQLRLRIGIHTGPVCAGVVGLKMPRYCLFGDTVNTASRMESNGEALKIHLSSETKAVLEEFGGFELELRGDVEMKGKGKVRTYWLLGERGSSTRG
Put plainly: Human NPRA cGMP activity assay (HTRF) in HEK293 cells overexpressing NPRA. The class given is cell-based. Put shortly:
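Tetracycline-induced (300 ng/mL, 48 h) T-Rex HEK293 cells expressing NPRA, 4000 cells/well, treated 40 min at room temperature with polypeptide (8 points, 10 μM to 1 pM) in HBSS/HEPES buffer with 0.5 mM IBMX, pH 7.4. cGMP by HTRF, normalised to 100 nM amidated rat ANP and buffer.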
In general terms: In TR-FRET formats the signal depends on donor and acceptor labels being close together.

[1] abbreviates: assay buffer with 0.1% BSA, read-out: cGMP Assay (EC50, pM) w/BSA hNPRA.
Where [2] appears, read: assay buffer with 0.1% casein, read-out: cGMP Assay (EC50, pM) w/Casein hNPRA.
Where [3] appears, read: cGMP Assay (EC50, pM) w/Casein hNPRA, assay buffer with 0.1% casein.
[4] abbreviates: cGMP Assay (EC50, pM) w/BSA hNPRA, assay buffer with 0.1% BSA.

Consider `CC[C@H](C)[C@@H]1NC(=O)[C@H](CCCNC(=N)N)NC(=O)[C@H](CC(=O)O)NC(=O)[C@H]([C@@H](C)CC)NC(=O)[C@H](CCCNC(=N)N)NC(=O)CNC(=O)CNC(=O)[C@H](Cc2ccccc2)NC(=O)[C@@H](NC(=O)[C@H](CO)NC(=O)[C@H](CO)NC(=O)[C@H](CCCNC(=N)N)NC(=O)[C@H](CCCNC(=N)N)NC(=O)[C@H](Cc2ccncc2)NC(=O)[C@H](CO)NC(=O)COCCOCCNC(=O)COCCOCCNC(=O)COCCOCCNC(=O)COCCOCCNC(=O)COCCOCCNC(=O)COCCOCCNC(=O)CNC(=O)[C@H](CCCCN)NC(=O)[C@H](CCC(=O)O)NC(=O)[C@H](CCCCN)NC(=O)[C@H](CCC(=O)O)NC(=O)[C@H](CCCCN)NC(=O)[C@H](CCC(=O)O)NC(=O)CC[C@H](NC(=O)CCCCCCCCCCCCCCCCCCC(=O)O)C(=O)O)CSCSC[C@@H](C(=O)N2CCC[C@H]2C(=O)N[C@@H](CO)C(=O)N[C@@H](Cc2ccccc2)C(=O)N[C@@H](CCCNC(=N)N)C(=O)N[C@@H](Cc2c[nH]cn2)C(=O)NCC(=O)NCC(=O)N[C@@H](CCCCN)C(=O)N[C@@H](CO)C(=O)N[C@@H](CO)C(=O)NCC(=O)N[C@@H](C)C(=O)N2CCC[C@H]2C(=O)N2CCC[C@H]2C(=O)N2CCC[C@H]2C(=O)N[C@@H](CO)C(N)=O)NC(=O)CNC(=O)[C@H](CC(C)C)NC(=O)CNC(=O)[C@H](CO)NC(=O)[C@H](CCC(N)=O)NC(=O)[C@H](Cc2c[nH]cn2)NC(=O)CNC1=O` [Example 86], for which the EC50 under setting [1] is 25200 pM and the EC50 under setting [2] is 1020 pM.

In the case of “{C20 diacid-γGlu}-EKEKEKG[PEG24]S[4Pal]RRSSCFGGRIDRIGHQSGLGCPSFRHGGPSSGAPPPS-NH2 (linker 15-31 via CH2) [Example 61]”, under setting [3], the EC50 is 912 pM. As for `CC[C@H](C)[C@@H]1NC(=O)[C@H](CCCNC(=N)N)NC(=O)[C@H](CC(=O)O)NC(=O)[C@H]([C@@H](C)CC)NC(=O)[C@H](CCCNC(=N)N)NC(=O)CNC(=O)CNC(=O)[C@H](Cc2ccccc2)NC(=O)[C@@H](NC(=O)[C@H](CO)NC(=O)[C@H](CO)NC(=O)[C@H](CCCNC(=N)N)NC(=O)CCNC(=O)[C@H](CCC(=O)O)NC(=O)[C@H](CCCCN)NC(=O)CNC(=O)[C@H](CCCCN)NC(=O)[C@H](CCC(=O)O)NC(=O)[C@H](CCCCN)NC(=O)[C@H](CCC(=O)O)NC(=O)[C@H](CCCCN)NC(=O)[C@H](CCC(=O)O)NC(=O)CC[C@H](NC(=O)CCCCCCCCCCCCCCCCCCC(=O)O)C(=O)O)CSCSC[C@@H](C(=O)N2CCC[C@H]2C(=O)N[C@@H](CO)C(=O)N[C@@H](Cc2ccccc2)C(=O)N[C@@H](CCCNC(=N)N)C(=O)N[C@@H](Cc2c[nH]cn2)C(=O)NCC(=O)NCC(=O)N2CCC[C@H]2C(=O)N[C@@H](CO)C(=O)N[C@@H](CO)C(=O)NCC(=O)N[C@@H](C)C(=O)N2CCC[C@H]2C(=O)N2CCC[C@H]2C(=O)N2CCC[C@H]2C(=O)N[C@@H](CO)C(N)=O)NC(=O)CNC(=O)[C@H](CC(C)C)NC(=O)CNC(=O)[C@H](CO)NC(=O)[C@H](Cc2ccc(O)cc2)NC(=O)[C@H](Cc2c[nH]cn2)NC(=O)CNC1=O` [Example 58], the EC50 under setting [4] turned out to be 104000 pM and the EC50 under setting [3] was 1220 pM.

As to `CC[C@H](C)[C@@H]1NC(=O)[C@H](CCCNC(=N)N)NC(=O)[C@H](CC(=O)O)NC(=O)[C@H]([C@@H](C)CC)NC(=O)[C@H](CCCNC(=N)N)NC(=O)[C@H](CCCCN)NC(=O)CNC(=O)[C@H](Cc2ccccc2)NC(=O)[C@@H](NC(=O)[C@H](CO)NC(=O)[C@H](CO)NC(=O)[C@H](CCCNC(=N)N)NC(=O)CCNC(=O)[C@H](CCCCN)NC(=O)[C@H](CCC(=O)O)NC(=O)CCOCCOCCOCCOCCOCCOCCOCCOCCOCCOCCOCCOCCOCCOCCOCCOCCOCCOCCOCCOCCOCCOCCOCCOCCNC(=O)CNC(=O)[C@H](CCCCN)NC(=O)[C@H](CCC(=O)O)NC(=O)[C@H](CCCCN)NC(=O)[C@H](CCC(=O)O)NC(=O)[C@H](CCCCN)NC(=O)[C@H](CCC(=O)O)NC(=O)CC[C@H](NC(=O)CCCCCCCCCCCCCCCCCCC(=O)O)C(=O)O)CSCSC[C@@H](C(=O)N2CCC[C@H]2C(=O)N[C@@H](CO)C(=O)N[C@@H](Cc2ccccc2)C(=O)N[C@@H](CCCNC(=N)N)C(=O)N[C@@H](Cc2c[nH]cn2)C(=O)NCC(=O)NCC(=O)N2CCC[C@H]2C(N)=O)NC(=O)CNC(=O)[C@H](CC(C)C)NC(=O)CNC(=O)[C@H](CO)NC(=O)[C@H](CCC(N)=O)NC(=O)[C@H](Cc2c[nH]cn2)NC(=O)CNC1=O` [Example 130] ({C20 diacid-γGlu}-EKEKEKG[PEG24]EK[βAla]RSSCFGKRIDRIGHQSGLGCPSFRHGGP-NH2; linker 15-31 via CH2), the EC50 runs as follows: under setting [1], 1270 pM; under setting [2], 669 pM. As to “{C20 diacid-γGlu}-EKEKEKGEKPRSSCFG[Dap]RIDRIGHQSGLGCPSFRHGSPSSGAPPPS-NH2 (linker 14-30 via CH2) [Example 137]”, the EC50 under setting [1] turned out to be 155000 pM and the EC50 under setting [2] was 769 pM. For the compound “{C20 diacid-γGlu}-EKEKEKGEKPRSSCFG[Dap]RIDRIGHYSGLGCPSFRHGSPSSGAPPPS-NH2 (linker 14-30 via CH2) [Example 136]”, the EC50 under setting [1] amounted to 100000 pM and the EC50 under setting [2] turned out to be 1380 pM.

Take `CC[C@H](C)[C@@H]1NC(=O)[C@H](CCCNC(=N)N)NC(=O)[C@H](CC(=O)O)NC(=O)[C@H]([C@@H](C)CC)NC(=O)[C@H](CCCNC(=N)N)NC(=O)CNC(=O)CNC(=O)[C@H](Cc2ccccc2)NC(=O)[C@@H](NC(=O)[C@H](CO)NC(=O)[C@H](CO)NC(=O)[C@H](CCCNC(=N)N)NC(=O)CCNC(=O)[C@H](CCCCN)NC(=O)[C@H](CCC(=O)O)NC(=O)CNC(=O)[C@H](CCCCN)NC(=O)[C@H](CCC(=O)O)NC(=O)[C@H](CCCCN)NC(=O)[C@H](CCC(=O)O)NC(=O)[C@H](CCCCN)NC(=O)[C@H](CCC(=O)O)NC(=O)CC[C@H](NC(=O)CCCCCCCCCCCCCCCCCCC(=O)O)C(=O)O)CSCSC[C@@H](C(=O)N2CCC[C@H]2C(=O)N[C@@H](CO)C(=O)N[C@@H](Cc2ccccc2)C(=O)N[C@@H](CCCNC(=N)N)C(=O)N[C@@H](Cc2c[nH]cn2)C(=O)NCC(=O)NCC(=O)N2CCC[C@H]2C(=O)N[C@@H](CO)C(=O)N[C@@H](CO)C(=O)NCC(=O)N[C@@H](C)C(=O)N2CCC[C@H]2C(=O)N2CCC[C@H]2C(=O)N2CCC[C@H]2C(=O)N[C@@H](CO)C(N)=O)NC(=O)CNC(=O)[C@H](CC(C)C)NC(=O)CNC(=O)[C@H](CO)NC(=O)[C@H](Cc2ccc(O)cc2)NC(=O)[C@H](Cc2c[nH]cn2)NC(=O)CNC1=O` [Example 56]: under setting [4], the EC50 was 145000 pM.
